Reference: PubChem BioAssay (NCI)
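Tested at 5 concentrations; 48 h exposure; 96-well plates; endpoints linearly interpolated, else capped at highest concentration. GI50 is the concentration that inhibits growth by half. TGI: concentration producing complete growth inhibition.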

Assays:
Experiment in all cases: NCI anticancer screen, dose series, 48 h
[1] = system: 786-0 renal
[2] = system: A498 renal
[3] = system: A549 NSCLC
[4] = system: ACHN renal
[5] = system: BT-549 breast
[6] = system: CAKI-1 renal
[7] = system: CCRF-CEM leukemia
[8] = system: COLO 205 colon
[9] = system: DU-145 prostate
[10] = system: EKVX NSCLC
[11] = system: HCC-2998 colon
[12] = system: HCT-116 colon
[13] = system: HCT-15 colon
[14] = system: HL-60(TB) leukemia
[15] = system: HOP-62 NSCLC
[16] = system: HOP-92 NSCLC
[17] = system: HS 578T breast
[18] = system: HT29 colon
[19] = system: IGROV1 ovarian
[20] = system: K-562 leukemia
[21] = system: KM12 colon
[22] = system: LOX IMVI melanoma
[23] = system: M14 melanoma
[24] = system: MALME-3M melanoma
[25] = system: MCF7 breast
[26] = system: MDA-MB-231 breast
[27] = system: MDA-MB-435
[28] = system: MOLT-4 leukemia
[29] = system: NCI-H226 lung
[30] = system: NCI-H23 lung
[31] = system: NCI-H460 lung
[32] = system: NCI-H522 lung
[33] = system: NCI/ADR-RES ovarian
[34] = system: OVCAR-3 ovarian
[35] = system: OVCAR-4 ovarian
[36] = system: OVCAR-5 ovarian
[37] = system: OVCAR-8 ovarian
[38] = system: PC-3 prostate
[39] = system: RPMI-8226 leukemia
[40] = system: RXF 393 renal
[41] = system: SF-268 CNS
[42] = system: SF-295 CNS
[43] = system: SF-539 CNS
[44] = system: SK-MEL-2 melanoma
[45] = system: SK-MEL-28 melanoma
[46] = system: SK-MEL-5 melanoma
[47] = system: SK-OV-3 ovarian
[48] = system: SN12C renal
[49] = system: SNB-19 CNS
[50] = system: SNB-75 CNS
[51] = system: SR leukemia
[52] = system: SW-620 colon
[53] = system: T-47D breast
[54] = system: TK-10 renal
[55] = system: U251 CNS
[56] = system: UACC-257 melanoma
[57] = system: UACC-62 melanoma
[58] = system: UO-31 renal

## Cc1nc2cc(-c3nn(C(C)C)c4ncnc(N)c34)ccc2o1
[1]
  GI50: 13.6 nM
  TGI: 287 nM
[2]
  GI50: 1.85 nM
  TGI: 6.89 nM
[3]
  GI50: 12.7 nM
  TGI: 310 nM
[4]
  GI50: 10.2 nM
  TGI: 1220 nM
[5]
  GI50: 3.51 nM
  TGI: 61 nM
[6]
  GI50: 4.9 nM
  TGI: 84.4 nM
[7]
  GI50: 27 nM
  TGI: > 10000 nM
[8]
  GI50: 12.1 nM
  TGI: 870 nM
[9]
  GI50: 19.7 nM
  TGI: > 10000 nM
[10]
  GI50: 14.1 nM
  TGI: 286 nM
[11]
  GI50: 12.2 nM
  TGI: > 10000 nM
[12]
  GI50: 35 nM
  TGI: > 10000 nM
[13]
  GI50: 12.6 nM
  TGI: > 6080 nM
[14]
  GI50: 68 nM
  TGI: > 10000 nM
[15]
  GI50: 21.8 nM
  TGI: 415 nM
[16]
  GI50: 1.96 nM
  TGI: 34.4 nM
[17]
  GI50: 5.18 nM
  TGI: 47.3 nM
[18]
  GI50: 20.8 nM
  TGI: > 5340 nM
[19]
  GI50: 3.41 nM
  TGI: 55.9 nM
[20]
  GI50: 28.8 nM
  TGI: > 10000 nM
[21]
  GI50: 17.2 nM
  TGI: 4980 nM
[22]
  GI50: 14.1 nM
  TGI: 660 nM
[23]
  GI50: 9.73 nM
  TGI: 1210 nM
[24]
  GI50: 3.47 nM
  TGI: 78.7 nM
[25]
  GI50: 3.79 nM
  TGI: > 10000 nM
[26]
  GI50: 11.6 nM
  TGI: > 3930 nM
[27]
  GI50: 8.54 nM
  TGI: 98.2 nM
[28]
  GI50: 20.6 nM
  TGI: > 3500 nM
[29]
  GI50: 5.05 nM
  TGI: 191 nM
[30]
  GI50: 41.5 nM
  TGI: > 7000 nM
[31]
  GI50: 5.89 nM
  TGI: > 10000 nM
[32]
  GI50: 3.64 nM
  TGI: 787 nM
[33]
  GI50: 26.7 nM
  TGI: 537 nM
[34]
  GI50: 12.5 nM
  TGI: 627 nM
[35]
  GI50: 6.46 nM
  TGI: 97 nM
[36]
  GI50: 14.9 nM
  TGI: 2180 nM
[37]
  GI50: 19.8 nM
  TGI: 431 nM
[38]
  GI50: 6.5 nM
  TGI: 598 nM
[39]
  GI50: 3.42 nM
  TGI: 385 nM
[40]
  GI50: 6.62 nM
  TGI: 104 nM
[41]
  GI50: 14.3 nM
  TGI: 1840 nM
[42]
  GI50: 6.99 nM
  TGI: 78.1 nM
[43]
  GI50: 22.7 nM
  TGI: 169 nM
[44]
  GI50: 21.3 nM
  TGI: 137 nM
[45]
  GI50: 6.62 nM
  TGI: 125 nM
[46]
  GI50: 15.8 nM
  TGI: 103 nM
[47]
  GI50: 4.65 nM
  TGI: 44.6 nM
[48]
  GI50: 9.83 nM
  TGI: > 10000 nM
[49]
  GI50: 41.2 nM
  TGI: > 10000 nM
[50]
  GI50: 3.09 nM
  TGI: 39.1 nM
[51]
  GI50: 16.8 nM
  TGI: 8070 nM
[52]
  GI50: 36.6 nM
  TGI: > 10000 nM
[53]
  GI50: 1.34 nM
  TGI: 15.8 nM
[54]
  GI50: 6.25 nM
  TGI: 166 nM
[55]
  GI50: 19.4 nM
  TGI: 2350 nM
[56]
  GI50: 11.1 nM
  TGI: 112 nM
[57]
  GI50: 3.93 nM
  TGI: 44 nM
[58]
  GI50: 2.11 nM
  TGI: 61.1 nM
